Assay results from patent publication US6015941A, “Peptide derivatives of tachyplesin having antimicrobial activity” (Pioneer Hi-Bred International, Inc., priority 1997, dated 2000).
Read-outs that look alike come from different tables or passages of the source. Positions of bridges follow the written chain, without caps; N, C: chain ends. Residues, ends and D or L forms follow the SMILES beside them.

How the values were obtained:
human erythrocytes [1] = details: red cells of human, 100 μM
Aspergillus flavus = format: cell-based
Fusarium graminearum = format: cell-based
[2] = tested on: maize protoplasts (Black Mexican Sweet)
[3] = tested on: Salmonella typhimurium (ATCC 13311); format: cell-based
[4] = tested on: Shigella dysenteriae (ATCC 13313); assay: Disk diffusion assay, human pathogens; format: cell-based
[5] = tested on: Pseudomonas aeruginosa (ATCC 21036); format: cell-based
Fusarium moniliforme = format: cell-based
[6] = tested on: Staphylococcus aureaus (ATCC 25923); format: cell-based, S. aureus
[7] = tested on: Candida albicans (ATCC 10231); format: cell-based
E. coli = format: cell-based
human erythrocytes [8] = details: cited from earlier work
[9] = average of two independent measurements, SD 15%
[10] = minimum complete inhibitory concentration, average of two measurements

| Molecule | lysis of rabbit erythrocytes (rabbit erythrocytes) | hemolysis of human erythrocytes (human erythrocytes [1]) | A. flavus MCIC (Aspergillus flavus) | A. flavus MIC (Aspergillus flavus) | F. graminearum MIC (Fusarium graminearum; [9]) | F. graminearum MCIC (Fusarium graminearum; [10]) | F. moniliforme MCIC (Fusarium moniliforme) | F. moniliforme MIC (Fusarium moniliforme) | also measured |
| --- | --- | --- | --- | --- | --- | --- | --- | --- | --- |
| CC[C@H](C)[C@H](NC(=O)CN)C(=O)NCC(=O)N[C@@H](C)C(=O)N[C@H](C(=O)N[C@@H](CC(C)C)C(=O)N[C@@H](CCCCN)C(=O)N[C@H](C(=O)N[C@@H](CC(C)C)C(=O)N[C@H](C(=O)N[C@H](C(=O)NCC(=O)N[C@@H](CC(C)C)C(=O)N1CCC[C@H]1C(=O)N[C@@H](C)C(=O)N[C@@H](CC(C)C)C(=O)N[C@H](C(=O)N[C@@H](CO)C(=O)N[C@@H](Cc1c[nH]c2ccccc12)C(=O)N[C@H](C(=O)N[C@@H](CCCCN)C(=O)N[C@@H](CCCNC(=N)N)C(=O)N[C@@H](CCCCN)C(=O)N[C@@H](CCCNC(=N)N)C(=O)N[C@@H](CCC(N)=O)C(=O)N[C@@H](CCC(N)=O)C(N)=O)[C@@H](C)CC)[C@@H](C)CC)[C@@H](C)O)[C@@H](C)O)C(C)C)C(C)C [Melittin] | complete lysis | – | – | – | – | – | – | – | – |
| CC[C@H](C)[C@@H]1NC(=O)CNC(=O)[C@H](CCCNC(=N)N)NC(=O)[C@H](Cc2ccc(O)cc2)NC(=O)[C@@H]2CSSC[C@H](NC1=O)C(=O)N[C@@H](Cc1ccc(O)cc1)C(=O)N[C@@H](CCCNC(=N)N)C(=O)N[C@@H](CCCNC(=N)N)C(=O)N[C@H](C(=O)N[C@@H](CCCNC(=N)N)C(=O)O)CSSC[C@H](NC(=O)[C@H](Cc1c[nH]c3ccccc13)NC(=O)[C@@H](N)CCCCN)C(=O)N[C@@H](Cc1ccccc1)C(=O)N[C@@H](CCCNC(=N)N)C(=O)N[C@@H](C(C)C)C(=O)N2 [TP, tachyplesin] (H-KWCFRVCYRGICYRRCR-OH; disulfide 3-16, 7-12) | little or no activity | about 15% | 34 | 13 µM | 8 µM | 17 µM | 21 | 8 µM | order of toxicity as measured by cell viability [2]: TPF>TP/TPM>TPI/TPL>TPY>TPA/TPV and TPD; S. typhimurium zone size [3]: 18 mm; S. dysenteria zone size ([4]; 50 μg per disk): 18 mm; S. dysenteria zone size ([4]; 100 μg per disk): 18 mm; P. aeruginosa zone size [5]: 14 mm; S. aureus zone size [6]: 18 mm; C. albicans zone size [7]: 16 mm; E. coli MCIC (E. coli): 3; E. coli MIC (E. coli): 1 µM |
| CC[C@H](C)[C@@H]1NC(=O)CNC(=O)[C@H](CCCNC(=N)N)NC(=O)[C@H](Cc2ccc(O)cc2)NC(=O)[C@@H]2CSSC[C@H](NC1=O)C(=O)N[C@@H](Cc1ccc(O)cc1)C(=O)N[C@@H](CCCNC(=N)N)C(=O)N[C@@H](CCCNC(=N)N)C(=O)N[C@H](C(=O)N[C@@H](CCCNC(=N)N)C(N)=O)CSSC[C@H](NC(=O)[C@H](Cc1c[nH]c3ccccc13)NC(=O)[C@@H](N)CCCCN)C(=O)N[C@@H](Cc1ccccc1)C(=O)N[C@@H](CCCNC(=N)N)C(=O)N[C@@H](C(C)C)C(=O)N2 [amidated-TP] (H-KWCFRVCYRGICYRRCR-NH2; disulfide 3-16, 7-12) | – | about 30% | – | – | – | – | – | – | lysis of human erythrocytes (human erythrocytes [8]): 100% |
| cecropin B | – | – | > 20 | > 20 µM | 3 µM | 5 µM | 20 | 3 µM | – |
| mastoparan [mastoporan] | – | – | > 50 | 24 µM | – | – | 11 | 3 µM | F. graminearum MCIC (Fusarium graminearum): 8; F. graminearum MIC (Fusarium graminearum): 5 µM |
